Key:
C. violaceum CV026 [1] = assay: Preliminary screening of bacterial quorum sensing regulatory (agonistic/inhibitory) activity on LB plate; type: cell-based, Chromobacterium violaceum; settings: 1 μl of 0.065M DMSO solution spotted on LB plate with C. violaceum CV026, 30° C., 16-18 h; agonist: purple induced; inhibitor: white circle in presence of inducer C6-HSL
Procedure: 1.1 Preparation work: compounds to be tested (Compounds 1-32 prepared in Example 1-32 and Intermediates 1-3) were weighed and then separately dissolved in 200 μl DMSO (dimethyl sulfoxide) to prepare a solution at a concentration of 0.065M. 5.0 mg inducer, N-hexanoyl homoserine lactone (C6—HSL, purchased from Sigma Company) was weighed and dissolved in 200 μl DMSO (at a concentration of 0.125M), the compounds and the inducer were all stored at 4° C. for further use. C. violaceum CV026 (donated by Professor McLean J C from Texas State University, the bacterium is the Tn-5 mutant of the wild type Chromobacterium violaceum ATCC31532; see Latifi, A., et al., Mol. Microbiol, 17, 333-343(1995) and Winson, M. K., et al., Proc. Natl. Acad. Sci. USA, 92, 9427-9431(1995)) was cultured under shaking in a shaker at 30° C., 200 rpm.
1.2 Method for preliminary screening of compounds having agonistic activity: 400 μl C. violaceum CV026 was added to 5 ml melted semi-solid LB culture medium (1% tryptone, 1% NaCl, and 0.5% yeast extract), and mixed homogeneously; the mixed culture medium was poured into a solid LB plate; when the mixed culture medium was solidified on the plate; 1 μl sample of the dissolved compound to be tested (Compounds 1-32 in Examples 1-32) was spotted on the plate; when the sample was dried in air, the plate was put in a 30° C. oven upside down and cultured for a period of 16-18 h. The agonistic activity of the compound was determined depending on whether purple strain was induced for C. violaceum CV026 on LB plate as well as the density of purple strain.
1.3 Method for preliminary screening of compounds having inhibitory activity: the inducer C6-HSL was diluted gradiently to 1000 times by means of 2-fold dilution; 15 μl of the diluted inducer and 400 μl C. violaceum CV026 in exponential phase were mixed homogeneously and then added to a 5 ml melted semi-solid LB culture medium; the mixture of inducer, C. violaceum, and semi-solid LB culture medium were poured onto a solid LB plate; when the mixture was solidified on the plate, 1 μl sample of the dissolved compound to be tested (Compounds 1-32 in Examples 1-32 and Intermediates 1-3) was spotted on the plate; when the sample was dried in air, the plate was put in a 30° C. oven upside down and was cultured for a period of 16-18 h. The inhibitory activity of a compound was preliminary determined depending on the size of the white circle appeared after C. violaceum CV026 was inhibited on LB plate.
It is found, after preliminary screening, that 17 compounds according to the invention have bacterial quorum sensing regulatory activity, and the screening result was shown in Table 1.

C. violaceum CV026 [2] = assay: Measurement of IC50 of compounds having an inhibitory effect on C. violaceum quorum sensing (purple pigment absorbance at 585 nm); type: cell-based; settings: Chromobacterium violaceum, CV026, read-out: IC50 of compounds having bacterial quorum sensing inhibitory activity
Procedure: 2. Measurement of IC50 of Compounds Having an Inhibitory Effect on C. violaceum Quorum Sensing
2.1 The wells of a 12-well plate were marked as initial concentration group, 2, 4, 8, 16, 32, 64, 128, and 256 fold diluted group, DMSO group, and a blank control group from left to right and from up to bottom, respectively.
2.2 The monoclonal C. violaceum CV026 grew on LB solid plate was cultured to exponential phase in a 5 ml fresh LB liquid culture medium, and 50 μl was then taken for seeding in a 5 ml LB culture medium, and cultured until the optical density OD value was about 1.0. The culture was then mixed homogeneously with LB culture medium at a ratio of 1:9 (at an OD of about 0.15), and added to a 12-well plate in an amount of 2 ml/well.
2.3 The compounds having quorum sensing inhibitory activity in preliminarily screening were dissolved in DMSO (at a concentration of 0.065M), respectively, and then 10 μl was taken into 10 μl DMSO solution for 2-fold dilution, and so on. Each compound was gradiently diluted to a highest fold of 256 (gradient dilution of 2, 4, 8, 16, 32, 64, 128, 256 fold).
2.4 To each well, 15 μl 1000-fold diluted inducer C6-HSL (initial concentration of 0.125M) and 8 μl compound solution at each diluted gradient was added; to the DMSO group, 8 μl DMSO was added; to the blank control group, 8 μl LB culture medium was added. Finally, it was ensured that 2 ml culture in each of the 12-well plate was mixed homogeneously.
2.5 The 12-well plate was placed in a 30° C. shaker at 130 rpm and cultured for 10-12 h.
2.6 After the culture was finished, 1 ml culture was taken from each well and put in a 1.5 ml EP tube and then centrifuged at 12000 rpm for 10 mins. The supernatant of the culture was sucked out, and 500 μl DMSO was added to each EP tube to dissolve the purple pigment in the culture. […] 200 μl supernatant pigment was put in a 96-well culture plate, and measured for absorbance value at 585 nm by a Microplate Reader. The absorbance value and the corresponding concentration were plotted to get the IC50 value.

Compound | Regulatory activity (bacterial quorum sensing) (C. violaceum CV026 [1]) | IC50 (C. violaceum CV026 [2]) [µM]
O=C(Nc1ccc(S(=O)(=O)N[C@H]2CCOC2=O)cc1)c1cccs1 [Compound 1, (s)-N-(4-(N-(2-oxotetrahydrofuran-3-yl)sulfamoyl)phenyl)thiophene-2-carboxamide] | − | 
O=C(Nc1ccc(S(=O)(=O)N[C@H]2CCOC2=O)cc1)c1ccsc1 [Compound 2, (s)-N-(4-(N-(2-oxotetrahydrofuran-3-yl)sulfamoyl)phenyl)thiophene-3-carboxamide] | − | 
O=C(Nc1ccc(S(=O)(=O)N[C@H]2CCOC2=O)cc1)c1ccc(Cl)s1 [Compound 3, (s)-5-chloro-N-(4-(N-(2-oxotetrahydrofuran-3-yl)sulfamoyl)phenyl)thiophene-2-carb oxamide] | − | 
O=C(Nc1ccc(S(=O)(=O)N[C@H]2CCOC2=O)cc1)c1ccc(Br)s1 [Compound 4, (s)-5-bromo-N-(4-(N-(2-oxotetrahydrofuran-3-yl)sulfamoyl)phenyl)thiophene-2-carb oxamide] | − | 
O=C(Nc1ccc(S(=O)(=O)N[C@H]2CCOC2=O)cc1)c1cc(Br)cs1 [Compound 6, (s)-4-bromo-N-(4-(N-(2-oxotetrahydrofuran-3-yl)sulfamoyl)phenyl)thiophene-2-carb oxamide] | − | 
Cc1csc(C(=O)Nc2ccc(S(=O)(=O)N[C@H]3CCOC3=O)cc2)c1 [Compound 7, (s)-4-methyl-N-(4-(N-(2-oxotetrahydrofuran-3-yl)sulfamoyl)phenyl)thiophene-2-carboxamide] | − | 
Cc1ccsc1C(=O)Nc1ccc(S(=O)(=O)N[C@H]2CCOC2=O)cc1 [Compound 8, (s)-3-methyl-N-(4-(N-(2-oxotetrahydrofuran-3-yl)sulfamoyl)phenyl)thiophene-2-carboxamide] | − | 69.2 ± 1.42
O=C(Nc1ccc(S(=O)(=O)N[C@H]2CCOC2=O)cc1)c1sccc1Cl [Compound 9, (s)-3-chloro-N-(4-(N-(2-oxotetrahydrofuran-3-yl)sulfamoyl)phenyl)thiophene-2-carb oxamide] | − | 9.19 ± 0.34
O=C(Nc1ccc(S(=O)(=O)N[C@H]2CCOC2=O)cc1)c1sccc1Br [Compound 10, (s)-3-bromo-N-(4-(N-(2-oxotetrahydrofuran-3-yl)sulfamoyl)phenyl)thiophene-2-carboxamide] | − | 13.5 ± 0.54
O=C(Nc1ccc(S(=O)(=O)N[C@H]2CCOC2=O)cc1)c1ccco1 [Compound 11, (s)-N-(4-(N-(2-oxotetrahydrofuran-3-yl)sulfamoyl)phenyl)furan-2-carboxamide] | ± | 
O=C(Nc1ccc(S(=O)(=O)N[C@H]2CCOC2=O)cc1)c1ccoc1 [Compound 12, (s)-N-(4-(N-(2-oxotetrahydrofuran-3-yl)sulfamoyl)phenyl)furan-3-carboxamide] | − | 
O=C(Nc1ccc(S(=O)(=O)N[C@H]2CCOC2=O)cc1)c1ccc([N+](=O)[O-])o1 [Compound 13, (s)-5-nitro-N-(4-(N-(2-oxotetrahydrofuran-3-yl)sulfamoyl)phenyl)furan-2-carboxamide] | − | 
Cc1occc1C(=O)Nc1ccc(S(=O)(=O)N[C@H]2CCOC2=O)cc1 [Compound 15, (s)-2-methyl-N-(4-(N-(2-oxotetrahydrofuran-3-yl)sulfamoyl)phenyl)furan-3-carboxamide] | − | 
O=C(Nc1ccc(S(=O)(=O)NC2CCOC2=O)cc1)c1ccc[nH]1 (stereo not shown) [Compound 17, (s)-1H—N-(4-(N-(2-oxotetrahydrofuran-3-yl)sulfamoyl)phenyl)pyrrole-2-carboxamide] | − | 
O=C(Cc1ccc(F)cc1)Nc1ccc(S(=O)(=O)N[C@H]2CCOC2=O)cc1 [Compound 20, (S)-4-fluoro-N-(4-(N-(2-oxotetrahydrofuran-3-yl)sulfamoyl)phenyl)benzeneacetamide] | − | 
O=C(Cc1ccc(Cl)cc1)Nc1ccc(S(=O)(=O)N[C@H]2CCOC2=O)cc1 [Compound 21, (S)-4-chloro-N-(4-(N-(2-oxotetrahydrofuran-3-yl)sulfamoyl)phenyl)benzeneacetamide] | − | 
O=C(Cc1ccccc1F)Nc1ccc(S(=O)(=O)N[C@H]2CCOC2=O)cc1 [Compound 27, (S)-2-fluoro-N-(4-(N-(2-oxotetrahydrofuran-3-yl)sulfamoyl)phenyl)benzeneacetamide] | + | 
Br.NC1CCOC1=O (stereo not shown) [Intermediate 1, (L)-homoserine lactone hydrobromide] | + | 
CC(=O)Nc1ccc(S(=O)(=O)N[C@H]2CCOC2=O)cc1 [Intermediate 2, (s)-N-(4-(N-(2-oxotetrahydrofuran-3-yl)sulfamoyl)phenyl)acetamide] | − | 

Source: patent publication US10071994B2, “N-sulfonyl homoserine lactone derivatives, preparation method and use thereof” (priority 2014, dated 2018)
